The values below are quoted from earlier work in paper PMC10590117 (International Journal of Nanomedicine, 2023).

For the data set the following is noted: humans.

Turning to `COc1cc(/C=C/C(=O)CC(=O)/C=C/c2ccc(O)c(OC)c2)ccc1O` [curcumin, Curcumin], the Peroral bioavailability is about 1%.
